Data taken from patent US20260364057A1, “AMIDE COMPOUND, AND COMPOSITION AND USE THEREOF” (SIMCERE ZAIMING PHARMACEUTICAL CO., LTD., priority 2022, published 2026).

These compounds were tested against T1, Human KIF18A (1-376aa) (Homo sapiens, UniProt Q8NI77) (assay: KIF18A enzyme activity assay (ADP-Glo)). Settings: microtubule 50 μg/mL, ATP (Km 70 μM), room temperature, 15 min, read-out: KIF18A inhibitory activity IC50.
T1 construct: Human KIF18A (1-376aa) protease used in the experiments; purchased Shanghai Panchao Biotechnology Co., Ltd
T1 sequence (Q8NI77 1-376): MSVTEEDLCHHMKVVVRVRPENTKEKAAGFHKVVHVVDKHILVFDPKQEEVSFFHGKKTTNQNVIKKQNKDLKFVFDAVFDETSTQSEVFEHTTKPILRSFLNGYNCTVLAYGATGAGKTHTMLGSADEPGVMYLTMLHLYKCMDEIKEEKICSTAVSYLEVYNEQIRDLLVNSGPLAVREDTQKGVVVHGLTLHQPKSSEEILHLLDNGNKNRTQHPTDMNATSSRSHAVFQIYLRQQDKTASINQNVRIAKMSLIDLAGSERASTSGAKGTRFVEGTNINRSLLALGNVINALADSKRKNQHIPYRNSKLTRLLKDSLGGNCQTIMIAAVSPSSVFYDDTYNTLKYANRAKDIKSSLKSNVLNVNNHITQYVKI
Type: biochemical
Protocol: Test Example 1: KIF18A Enzyme Activity Assay
Based on the ADP-Glo™ Kinase Assay, the ADP amount generated in the reaction was detected to reflect the enzyme activity of KIF18A.
Human KIF18A (1-376aa) […] used in the experiments, expressed by Shanghai Panchao Biotechnology Co., Ltd., was stored at −80 °C (no more than 5 freeze-thaw cycles).
The assay kit (ADP-Glo™ Kinase Assay) was purchased from Promega (Cat. No. V9101) and stored at −30 °C. The kit detects the enzyme activity by measuring ADP generated in enzyme reaction. The KIF18A enzyme and ATP generate ADP. The remaining ATP in this reaction is consumed by the ADP-Glo reagent, while the ADP generated by the KIF18A enzyme reaction is converted back to ATP by the assay reagent. The ATP then reacts with luciferin in the presence of Ultra-Glo™ luciferase, producing luminescence. The luminescent signal is positively correlated with the activity of the KIF18A enzyme.
Compounds were each subjected to 3-fold serial dilution starting from 10 μM to obtain 10 concentration points. The compounds and pure DMSO (control) were pipetted into wells of a 384-well plate using an Echo instrument, and the total volume of compound and DMSO was 100 nL; sample concentrations of gradient dilution were obtained by the instrument based on different ratios. Preparation of a KIF18A enzyme reaction buffer: […], 10 mM MgCl2, 0.01% Pluronic F-68, 1 μM Taxol, and 50 μg/mL Microtubule. KIF18A and the enzyme reaction buffer were mixed, and then the mixed solution was added to the 384-well plate and incubated at room temperature for 15 min. ATP (Km 70 μM) was then added to the mixed solution, and the mixed solution was incubated at room temperature for 15 min. 10 μL of ADP-Glo™ Reagent was well mixed with 10 μL of the mixed solution, and the mixture was incubated at room temperature for 40 min. Finally, 20 μL of ADP-Glo™ Detection Reagent was added, and the mixture was incubated at room temperature for 30 min. The chemiluminescent signal in each well was measured using an Envision plate reader (PerkinElmer, emission wavelength: 400-700 nm). In the experiment, 1 column of wells with no compound and no enzyme (chemiluminescence value was taken as [RLU]background) and 1 column of wells with enzyme but no compound (chemiluminescence value was taken as [RLU]enzyme) were provided. The chemiluminescence value of the compound adding group was taken as [RLU]cpd. The inhibition rate of the compound on […] was calculated according to the following equation: inhibition rate (%)=([RLU]enzyme−[RLU]cpd)/([RLU]enzyme−[RLU]background)×100%, and the inhibitory activity IC50 value of the compound on the enzyme activity was calculated using a four-parameter Logistic Model method. In the following equation, x represents the logarithmic form of the concentration of compound, and f (x) represents an effect value (inhibition rate of enzyme activity at the concentration): F(x)=(A+((B−A)/(1+((C/x)^D)))). A. B, C, and D are four parameters.
`COC1Cc2nc3c(NC(=O)c4ccc(NS(=O)(=O)CCO)cc4N4CCC5(CC4)CC5)cccc3n2C1` (stereo not drawn) [Compound 62] gave an IC50 of under 0.2 µM. `O=C(Nc1cccc2c1nc1n2CCC12CC2)c1ccc(NS(=O)(=O)CCO)cc1N1CCC2(CC1)CC2` [Compound 85] was tested, and the IC50 was under 0.5 µM. In the case of `O=C(Nc1ccnc2c1ccn2CCC(F)(F)F)c1ccc(NS(=O)(=O)CCO)cc1N1CCC2(CC1)CC2` [Compound 5], the IC50 is reported as under 0.2 µM. `O=C(Nc1cccc2c1nc1n2CCC2(CC2)C1)c1ccc(NS(=O)(=O)CCO)cc1N1CCC2(CC1)CC2` [Compound 91] gave an IC50 of under 0.2 µM. `O=C(Nc1cccc2c1nc1n2CCC1)c1ccc(NS(=O)(=O)CCO)cc1N1CCC2(CC1)CC2` [Compound 23] showed an IC50 of under 0.2 µM. Compound `O=C(Nc1cn(C2CC2)c(=O)c(N2CCC(F)(F)CC2)n1)c1ccc(NS(=O)(=O)CCO)cc1N1CCC2(CC1)CC2` [Compound 93] has an IC50 of under 0.2 µM. `Cc1nc2c(NC(=O)c3ccc(NS(=O)(=O)CCO)cc3N3CCC4(CC3)CC4)cccn2c1C` [Compound 9] showed an IC50 of under 0.2 µM. Work on `O=C(Nc1ccnc2c1nc1n2CCCC1)c1ccc(NS(=O)(=O)CCO)cc1N1CCC2(CC1)CC2` [Compound 36] yielded an IC50 of under 0.2 µM. With `CN1CCOc2ccc(NC(=O)c3ccc(NS(=O)(=O)CCO)cc3N3CCC4(CC3)CC4)nc21` [Compound 19] the IC50 was under 0.2 µM. For `O=C(Nc1ccnc2c1OCC1CCCCN21)c1ccc(NS(=O)(=O)CCO)cc1N1CCC2(CC1)CC2` (stereo not drawn) [Compound 10], the IC50 was under 0.2 µM. Compound `O=C(Nc1cccc2c1nc1n2C2CC2CC1)c1ccc(NS(=O)(=O)CCO)cc1N1CCC2(CC1)CC2` (stereo not drawn) [Compound 69] has an IC50 of under 0.2 µM. In the case of `O=C(Nc1cccc2c1nc1n2C2CC(C1)C2)c1ccc(NS(=O)(=O)CCO)cc1N1CCC2(CC1)CC2` [Compound 46], the IC50 is reported as under 0.2 µM. With `O=C(Nc1cccc2c1ccn2C1CCC1)c1ccc(NS(=O)(=O)CCO)cc1N1CCC2(CC1)CC2` [Compound 4] the IC50 was under 0.2 µM. With `Cc1cnc2c(NC(=O)c3ccc(NS(=O)(=O)CCO)cc3N3CCC4(CC3)CC4)snc2c1` [Compound 32] the IC50 was under 0.2 µM. `Cc1nc2c(NC(=O)c3ccc(NS(=O)(=O)CCO)cc3N3CCC4(CC3)CC4)cccn2n1` [Compound 3] was tested, and the IC50 was under 0.2 µM. `CC1(C)C2Cn3c(nc4c(NC(=O)c5ccc(NS(=O)(=O)CCO)cc5N5CCC6(CC5)CC6)cccc43)C21` (stereo not drawn) [Compound 95] was tested, and the IC50 was under 0.2 µM. `Cn1ccc2ccc(NC(=O)c3ccc(NS(=O)(=O)CCO)cc3N3CCC4(CC3)CC4)nc21` [Compound 15] gave an IC50 of under 0.2 µM. `Cc1ccnc2c(NC(=O)c3ccc(NS(=O)(=O)CCO)cc3N3CCC4(CC3)CC4)ccnc12` [Compound 7] gave an IC50 of under 0.2 µM. `O=C(Nc1cc2nccn2c(N2CCC3(CC2)CC3)n1)c1ccc(NS(=O)(=O)CCO)cc1N1CCC2(CC1)CC2` [Compound 20] showed an IC50 of under 0.2 µM. With `O=C(Nc1snc2cc3c(nc12)CCCC3)c1ccc(NS(=O)(=O)CCO)cc1N1CCC2(CC1)CC2` [Compound 52] the IC50 was under 0.2 µM. With `Cc1cc(NC(=O)c2ccc(NS(=O)(=O)CCO)cc2N2CCC3(CC2)CC3)c2nc3c(n2c1)CCCC3` [Compound 18] the IC50 was under 0.2 µM. `CN1CCn2c(nc3c(NC(=O)c4ccc(NS(=O)(=O)CCO)cc4N4CCC5(CC4)CC5)cccc32)C1` [Compound 89] showed an IC50 of under 0.5 µM. Work on `CC(C)c1cnc2c(NC(=O)c3ccc(NS(=O)(=O)CCO)cc3N3CCC4(CC3)CC4)snc2c1` [Compound 57] yielded an IC50 of under 0.2 µM. `O=C(Nc1cccc2c1nc1n2C2CC2C1)c1ccc(NS(=O)(=O)CCO)cc1N1CCC2(CC1)CC2` (stereo not drawn) [Compound 90] showed an IC50 of under 0.2 µM. In the case of `C=Cc1cc2c(NC(=O)c3ccc(NS(=O)(=O)CCO)cc3N3CCC4(CC3)CC4)ccnc2n1C` [Compound 27], the IC50 is reported as under 0.2 µM. Work on `O=C(Nc1cccc2c1nc1n2CC(F)(F)CC1)c1ccc(NS(=O)(=O)CCO)cc1N1CCC2(CC1)CC2` [Compound 25] yielded an IC50 of under 0.2 µM. `O=C(Nc1cc2c(c(N3CCC(F)(F)CC3)n1)CCC2)c1ccc(NS(=O)(=O)CCO)cc1N1CCC2(CC1)CC2` [Compound 66] gave an IC50 of under 0.5 µM. With `O=C(Nc1ccc(=O)n(C2=CCC(F)(F)CC2)n1)c1ccc(NS(=O)(=O)CCO)cc1N1CCC2(CC1)CC2` [Compound 75] the IC50 was under 0.2 µM. For `O=C(Nc1ccc(F)c2c1nc1n2CCCC1)c1ccc(NS(=O)(=O)CCO)cc1N1CCC2(CC1)CC2` [Compound 33], the IC50 was under 0.2 µM. For `COC1CCn2c1nc1c(NC(=O)c3ccc(NS(=O)(=O)CCO)cc3N3CCC4(CC3)CC4)cccc12` (stereo not drawn) [Compound 63], the IC50 was under 0.2 µM. `Cc1cc(NC(=O)c2ccc(NS(=O)(=O)CCO)cc2N2CCC3(CC2)CC3)c2nc3n(c2n1)CCCCC3` [Compound 79] was tested, and the IC50 was under 0.2 µM. `O=C(Nc1cccc2c1nc1n2CC2(CC2)C1)c1ccc(NS(=O)(=O)CCO)cc1N1CCC2(CC1)CC2` [Compound 84] gave an IC50 of under 0.5 µM. In the case of `CN1CCc2ccc(NC(=O)c3ccc(NS(=O)(=O)CCO)cc3N3CCC4(CC3)CC4)nc21` [Compound 16], the IC50 is reported as under 0.2 µM. `O=C(Nc1cncc2c1nc1n2CCCC1)c1ccc(NS(=O)(=O)CCO)cc1N1CCC2(CC1)CC2` [Compound 43] showed an IC50 of under 0.5 µM. `O=C(Nc1cccc2c1oc1ccccc12)c1ccc(NS(=O)(=O)CCO)cc1N1CCC2(CC1)CC2` [Compound 8] gave an IC50 of under 0.2 µM. `Cn1c(N2CCC(F)(F)CC2)nc(NC(=O)c2ccc(NS(=O)(=O)CCO)cc2N2CCC3(CC2)CC3)cc1=O` [Compound 2] gave an IC50 of under 0.2 µM. In the case of `O=C(Nc1cc2nccn2c(OCCC(F)(F)F)n1)c1ccc(NS(=O)(=O)CCO)cc1N1CCC2(CC1)CC2` [Compound 13], the IC50 is reported as under 0.2 µM. With `CC(C)n1ccc2c(NC(=O)c3ccc(NS(=O)(=O)CCO)cc3N3CCC4(CC3)CC4)ccnc21` [Compound 6] the IC50 was under 0.2 µM. `O=C(Nc1ccc2cc3n(c2n1)CCCC3)c1ccc(NS(=O)(=O)CCO)cc1N1CCC2(CC1)CC2` [Compound 26] gave an IC50 of under 0.2 µM.
